Series [1] is classed as physicochemical. From the text:
Thus the long term stability of PNT with triacetin (or other oily vehicles) is highly unexpected.
After one month in accelerated stability the components of the composition appeared to degrade rapidly with a resulting colour change from an off-white to a dark yellow with dark brown sludge forming. The degradation components appeared to include a gas, resulting in the container swelling from the resultant pressure. Accordingly, the formulations described in CN 1517090 are not known to be storage stable.

For series [2] the following is noted: at 20° C.; cited from earlier work.
The conditions of series [3]: blood pH (7.2); cited from earlier work.
The conditions of series [4]: intramuscular administration; Friton 2003; cited from earlier work.

This is an account of results in patent US10376585B2, “Injectable antibiotic formulations and their methods of use” (BAYER NEW ZEALAND LTD, priority 2012, dated 2019).

For the molecule `CC1(C)S[C@@H]2[C@H](NC(=O)Cc3ccccc3)C(=O)N2[C@H]1C(=O)O.CCN(CC)CCOC(=O)c1ccc(N)cc1` [procaine penicillin], in series [1], the “chemical stability of composition” value is given as “chemically unstable” and the “chemical stability on storage” value was “chemically unstable on storage”. Regarding `CC(=O)OCC(COC(C)=O)OC(C)=O` [Triacetin], in series [2], the viscosity entry is listed as “approximately 23 mPas”. On to `CC1(C)S[C@@H]2[C@H](NC(=O)Cc3ccccc3)C(=O)N2[C@H]1C(=O)O` [benzylpenicillin], for which the “chemical stability on storage” value in series [1] is on record as “chemically unstable on storage”. In the case of `CCN(CC)CCOC(=O)[C@@H]1N2C(=O)[C@@H](NC(=O)Cc3ccccc3)[C@H]2SC1(C)C.I` [penethamate hydroiodide], in series [3], the “active drug present in its hydrolysed form (benzylpenicillin) at equilibrium” value was 91.8%. The “time to peak serum levels (measured as dissociated penicillin G) after injection” value in series [4] was 3.76 h.
